Six substances from patent publication US12428445B2, “Mini-nucleosome core proteins and use in nucleic acid delivery” (priority 2018, dated 2025) can be followed below.

Where no end group is shown, it is not given here. [ ]: non-standard residue; d: D form. LINKER = not defined here

The nature of data set [1]: Transmission Electron Microscopy (TEM) of loaded mini-nucleosomes (shape). In kind it is physicochemical. As to conditions: Luciferase plasmid (SEQ ID NO: 396) condensed with core protein; final formulation in sterile, endotoxin free water. The source says:
Provided in this Example are techniques to produce loaded mini-nucleosomes in various formulations, including formulations useful for administration to cells and to mammalian subjects, e.g., humans. Loaded mini-nucleosomes can be formulated to different shape and/or sizes parameters based on the mini-nucleosome core protein amino acid sequence and the buffer conditions in which the synthesis occurs. Loaded mini-nucleosomes can be formulated in different conditions, e.g., with solubility suitable for therapeutic use. Solubility of loaded mini-nucleosomes in water and/or normal saline is one means to allow non-toxic formulation of compositions for administration to patients, and to ease of delivery into patients. To form loaded mini-nucleosomes represented in FIG. 7, core proteins were synthesized by solid phase synthesis using trifluoroacetate buffers. 200 micrograms of DNA (SEQ ID NO: 396) were added to 1 milligram of lyophilized core proteins and vortexed together, and purified to produce loaded mini-nucleosomes (FIG. 7). Buffer exchange was performed and final formulation of mini-nucleosome was made in sterile, endotoxin free water. 1 microgram of each kind of mini-nucleosomes was diluted in water and then placed on grids that were stained with freshly prepared in 0.75% uranyl acetate in methanol solution for two minutes. […]

In a further data set the test system is muscle cells. As to the kind of experiment: Intramuscular delivery, GFP fluorescence and dystrophin immunolabeling in leg muscle sections. The note with it: 17.5 ug per leg, Balb/c mice, 3-months post injection. The data set is classed as in vivo. As for the experimental part: Balb/c mice were anesthetized by IP injection with Ketamine/Xylazine (90-100 mg/kg+10 mg/kg) and several loaded mini-nucleosomes were injected into both leg muscle at 17.5 ug doses per leg using an insulin syringe (Total dose 35 micrograms per mice). Mice were sacrificed at various time points and leg muscle were obtained for tissue sections. […] One skilled in the art may contemplate combining such domains with other domains known for muscle tropism.
To validate muscle specificity of expression of genes encoded by the nucleic acid cargo, we utilized dystrophin immunolabeling as an endogenous secondary marker. […] Native fluorescence of GFP was obtained in the 486-nm channel of Leica SP5 scope. Dystrophin in red is the RFP channel (555-nm). Untransduced muscle cells in figure also serve as internal control for differentiation between GFP signal and autofluorescence.

The test system of another data set is retina and RPE cells. As to the kind of experiment: Intraocular (intravitreal) delivery, native GFP fluorescence in retinal sections and RPE whole mounts. The data set is classed as in vivo. As to conditions: 1.5 micrograms, Balb/c mice. As for the experimental part:
In the present Example, Balb/c mice were anesthetized by IP injection with Ketamine/Xylazine (90-100 mg/kg+10 mg/kg) and positioned underneath a microscope. Mice eyes were dilated with topical Tropicamide (1%) and 1 ul of loaded mini-nucleosomes (total dose 1.5 micrograms in mice) were injected into the vitreous cavity using 32 gauze blunt needle passing through the incision made by a 25-gauze needle below the limbus. At various time points, mice were perfused with 10 ml of 1×PBS, and then sacrificed using standard techniques. Mice were enucleated and eyecups were collected and incubated in 4% paraformaldehyde overnight. The eyecups were washed with 1×PBS, then immersed in 15% sucrose for few hours and then in 30% sucrose solution overnight for cryopreservation. The eyecups were then placed in a plastic vial and frozen using OCT compound for cryo-sectioning. 10-micron thick tissue sections were obtained for staining. The retinal sections were mounted with mounting media with or without DAPI, coverslip and sealed. Images were acquired by Leica SP5. For whole mount imaging, eyecups were fixed in 4% paraformaldehyde overnight. Eyecups were washed in 1×PBS, retina was removed and the remaining eyecup or RPE wholemount was processed for staining. The RPE tissue was whole mounted with mounting media, coverslip and sealed. Images were acquired by Leica SP5.
To target the RPE cells, the present Example utilized a mini-nucleosome core protein (SEQ ID NO: 392) that could bind to the phagocytic proteins like MERTK. RPE are phagocytic cells, that extend their microvilli to the photoreceptor inner/outer segment junction. MERTK is expressed in those microvilli. In SEQ ID NO: 392, we incorporated the “eat me” signals as descried in Table 8. In literature, “eat me” signals are described as domains exposed in cellular debris that are primed for phagocytosis (Wei Li, Journal of Cell physiology, 2016, which is incorporated herein by reference). To the present inventor's knowledge, these “eat me” signals have never been utilized in the context of non-viral vectors before. […]

With “CKKKKKKKKKKKKKKKKKKKKKKKKKKKKKK [SEQ ID NO: 393, reference compound]”, the “Shape of loaded mini-nucleosome (TEM)” value in data set [1] is given as “spiral/helical-shaped”. In addition, in the data set on muscle cells, the “GFP fluorescence in muscle tissue sections at 3 months” value (“GFP fluorescence” below) is recorded as “didn't exhibit GFP fluorescence”. As to “KKKRHRKKKKK-[LINKER]-RGD-[LINKER]-KKKK-[LINKER]-NTQIH-[LINKER]-RRRRR-[LINKER]-TPH-[LINKER]-KK (KKKRHRKKKKK[LINKER]RGD[LINKER]KKKK[LINKER]NTQIH[LINKER]RRRRR[LINKER]TPH[LINKER]KK; reading uncertain; also: linker structure not given here) [SEQ ID NO: 391]”, the “Shape of loaded mini-nucleosome (TEM)” value in data set [1] was “mixture of circular and rod like molecules”. The “GFP fluorescence” value with muscle cells was “sharp green fluorescence in skeletal muscle cells”.

As to “KKKRHRKRKRKRKRRRRKKK-[LINKER]-ASSLNIAK-[LINKER]-RRRR (KKKRHRKRKRKRKRRRRKKK[LINKER]ASSLNIAK[LINKER]RRRR; reading uncertain; also: linker structure not given here) [SEQ ID NO: 389]”, the “GFP fluorescence” value in the data set on muscle cells is “didn't exhibit GFP fluorescence”. As to “SEQ ID NO. 388 (KKRHRKLREKRHRKLRRRRRLKRHRKKRHRKLREK; not fully specified)”, in the data set on retina and RPE cells, the “GFP expression / transduction in retina and RPE” value is reported as “express GFP to target neuronal cells in the retina”. “SEQ ID NO. 392 (KKKRKKTKKKAKKALKKKKKGKKKKRRRRKAAPKK; not fully specified)”: in the data set with retina and RPE cells, the “GFP expression / transduction in retina and RPE” value is “enhanced uptake into the RPE”. The same measure, in the same setting: in the case of “SEQ ID NO:388 (KKRHRKLREKRHRKLRRRRRLKRHRKKRHRKLREK; not fully specified)” it was “transduction into ganglion cells, bipolar cells and photoreceptors”.
